# Test system: XBP1(u)-luciferase splicing reporter in HepG2 hepatoma cells
# Experiment: HepG2 XBP1 reporter assay (XBP1(u)-Luc)
# Assay type: cell-based
# Details: Homo sapiens, 6 h, six hours after addition of compound
row,Compound,IC50 [µM]
1,Cc1cc(N2CCCOC[C@@H]2c2ccc([C@H](C)S(C)(=O)=O)cc2Cl)nc(N)n1 [D-139],0.6 to 2
2,Cc1cc(N2CCCOCC2c2ccc(Br)cc2OC(F)(F)F)nc(N)n1 [D-140],≥ 5
3,Cc1cc(N2CCCOCC2c2cc(CC(=O)O)c(C#N)cc2Cl)nc(N)n1 [D-156],≥ 5
4,CCOc1cc(C2COCCCN2c2cc(C)nc(N)n2)c(Cl)cc1OCC(=O)O [D-160],≥ 5
5,Cc1cc(N2CCCOC[C@H]2c2cc(N)c(OC(F)(F)F)cc2Cl)nc(N)n1 [D-161],≥ 5
6,CCc1cc(N2CCCOC[C@H]2c2ccc(OS(C)(=O)=O)cc2Cl)nc(N)n1 [D-162],≥ 5
7,Cc1cc(N2CCCOC[C@H]2c2ccc(C3CCN(C4COC4)CC3)cc2Cl)nc(N)n1 [D-163],≥ 5
8,Cc1cc(N2CCCOC[C@H]2c2cc(CN)c(C)cc2Cl)nc(N)n1 [D-164],≥ 5
9,Cc1cc(N2CCCOC[C@H]2c2cc(O)c(C)cc2Cl)nc(N)n1 [D-165],≥ 5
10,Cc1cc(N2CCCOC[C@@H]2c2cnc(CS(C)(=O)=O)cc2Cl)nc(N)n1 [D-166],≥ 5
11,Cc1cc(N2CCCOC[C@H]2c2ncc(CS(C)(=O)=O)cc2Cl)nc(N)n1 [D-167],≥ 5
12,COc1ccc([C@@H]2COCCCN2c2cc(C)nc(N)n2)c(Cl)c1 [D-168],≥ 5
13,Cc1cc(N2CCCOC[C@H]2c2cc(O)c(CS(C)(=O)=O)cc2Cl)nc(N)n1 [D-171],≥ 5
14,Cc1cc(N2CCCOCC2c2cnc(CS(C)(=O)=O)nc2O)nc(N)n1 [D-172],≥ 5
15,Cc1cc(N2CCCOC[C@H]2c2ccc(CS(C)(=O)=O)nc2OC(F)F)nc(N)n1 [D-173],≥ 5
16,Cc1cc(N2CCCOC[C@H]2c2cc(CN)c(Cl)cc2C)nc(N)n1 [D-174],≥ 5
17,Cc1cc(N2CCCOCC2c2ccc3ncnn3c2)nc(N)n1 [D-175],≥ 5

row,Compound,IC50 [µM]
1,CCOc1cc([C@@H]2COCCCN2c2cc(C)nc(N)n2)c(Cl)cc1OCC(N)=O [D-176],≥ 5
2,Cc1cc(N2CCCOCC2c2ccc(Cl)cc2C(=O)O)nc(N)n1 [D-177],≥ 5
3,C#CCOc1cc(Cl)c([C@@H]2COCCCN2c2cc(C)nc(N)n2)cc1OC [D-178],≥ 5
4,CCc1cc(N2CCCOC[C@H]2c2cc(O)c(OC)cc2Cl)nc(N)n1 [D-179],≥ 5
5,Cc1cc(N2CCCOC[C@H]2c2cc(O)c(C(N)=O)cc2Cl)nc(N)n1 [D-180],≥ 5
6,Cc1cc(N2CCCOC[C@@H]2c2cc3c(cc2Cl)NC[C@@](C)(C(=O)O)O3)nc(N)n1 [D-181],≥ 5
7,CNC(=O)c1cc(Cl)c([C@@H]2COCCCN2c2cc(C)nc(N)n2)cc1O [D-182],≥ 5
8,Cc1cc(N2CCCOC[C@H]2c2cc(O)c(C(=O)N(C)C)cc2Cl)nc(N)n1 [D-183],≥ 5
9,Cc1cc(N2CCCOC[C@H]2c2cc(O)c(OC(F)(F)F)cc2Cl)nc(N)n1 [D-184],≥ 5
10,Cc1cc(N2CCCOC[C@H]2c2cc(O)c(C(=O)NCCO)cc2Cl)nc(N)n1 [D-185],≥ 5
11,Cc1cc(N2CCCOC[C@H]2c2cc(O)c(C(=O)NC3CC3)cc2Cl)nc(N)n1 [D-186],≥ 5
12,Cc1cc(N2CCCOCC2c2ccc(C(=O)O)cc2Cl)nc(N)n1 [D-187],≥ 5
13,CS(=O)(=O)c1ccc(C2COCCCN2c2cc(C(F)(F)F)nc(N)n2)c(Cl)c1 [D-188],≥ 5
14,Cc1cc(N2CCCOC[C@H]2c2cc(O)c(C(=O)N3CCOCC3)cc2Cl)nc(N)n1 [D-189],≥ 5
15,Cc1cc(N2CCCOCC2c2ccc(S(C)(=O)=O)cc2C#N)nc(N)n1 [D-190],≥ 5
16,Cc1cc(N2CCCOC[C@@H]2c2ccc(C(C)(C)S(C)(=O)=O)cc2Cl)nc(N)n1 [D-191],≥ 5

# Reference: patent publication US11440907B1 (Merck Patent GmbH, priority 2018, dated 2022)
